The source of these data is patent publication US20060040984A1, “Novel piperidine derivatives for use in the treatment of chemokine medicated disease states” (priority 2002, published 2006).

For one test, the target named is T1, CCR3 (Homo sapiens, UniProt P51677).
T1 construct: Human eosinophils were isolated from EDTA anticoagulated peripheral blood; endogenous in cells; host or cells: human peripheral blood eosinophils
T1 sequence (P51677 1-355): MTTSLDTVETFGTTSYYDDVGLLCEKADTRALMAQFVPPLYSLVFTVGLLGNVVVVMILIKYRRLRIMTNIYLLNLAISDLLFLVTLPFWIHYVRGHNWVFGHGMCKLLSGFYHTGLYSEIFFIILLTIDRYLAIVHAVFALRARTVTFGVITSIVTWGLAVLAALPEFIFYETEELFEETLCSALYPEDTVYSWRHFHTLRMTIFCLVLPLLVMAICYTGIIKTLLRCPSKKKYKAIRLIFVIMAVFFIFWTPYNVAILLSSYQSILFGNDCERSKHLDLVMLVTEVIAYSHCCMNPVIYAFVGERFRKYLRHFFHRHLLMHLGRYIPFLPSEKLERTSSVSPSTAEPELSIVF
Description: Human eosinophil chemotaxis (eotaxin mediated). The format is cell-based. To be noted: read-out: % inhibition at 1 μM, 1 μM compound, human eosinophils. How it is done:
Human Eosinophil Chemotaxis
Human eosinophils were isolated from EDTA anticoagulated peripheral blood as previously described (Hansel et al., J. Immunol. Methods, 1991, 145, 105-110). The cells were resuspended at 10×10^6 mL-1 in RPMI containing 200 IU/mL penicillin, 200 μg/mL streptomycin sulfate and supplemented with 10% HIFCS, at room temperature.
Eosinophils (700 μl) were pre-incubated for 15 mins at 37° C. with 7 μl of either vehicle or compound (100× required final concentration in 10% DMSO). […] The filter was then placed over the wells and 25 μl of eosinophil suspension were added to the top of the filter. The plate was incubated for 1 hr at 37° C. in a humidified incubator with a 95% air/5% CO2, atmosphere to allow chemotaxis.
The medium, containing cells that had not migrated, was carefully aspirated from above the filter and discarded. The filter was washed once with phosphate buffered saline (PBS) containing 5 mM EDTA to remove any adherent cells. Cells that had migrated through the filter were pelleted by centrifugation (300×g for 5 mins at room temperature) and the filter removed and the supernatant transferred to each well of a 96-well plate (Costar). The pelleted cells were lysed by the addition of 28 μl of PBS containing 0.5% Triton ×100 followed by two cycles of freeze/thawing. The cell lysate was then added to the supernatant. The number of eosinophils migrating was quantified according to the method of Strath et al., J. Immunol. Methods, 1985, 83, 209 by measuring eosinophil peroxidase activity in the supernatant.
Consider `COc1ccccc1C(C(=O)O)N1CCC(CN2CCC(Oc3ccc(Cl)c(Cl)c3)CC2)CC1` (stereo not drawn) [Example 4, 4-[[4-(3,4-Dichlorophenoxy)-1-piperidinyl]methyl]-α-(2-methoxyphenyl)-1-piperidineacetic acid], for which the inhibition at 1 µM worked out at 90%.

On to `COc1ccccc1C(C(=O)O)N1CCC(CN2CCC(Oc3ccc(Cl)cc3C)CC2)CC1` (stereo not drawn) [Example 10, 4-[[4-(4-Chloro-2-methylphenoxy)-1-piperidinyl]methyl]-α-(2-methoxyphenyl)-1-piperidineacetic acid], for which the inhibition at 1 µM came out at 108%.

On to `Cc1ccc(C(C(=O)O)N2CCC(CN3CCC(Oc4ccc(Cl)cc4C)CC3)CC2)cc1` (stereo not drawn) [Example 13, 4-[[4-(4-Chloro-2-methylphenoxy)-1-piperidinyl]methyl]-α-(4-methylphenyl)-1-piperidineacetic acid], for which the inhibition at 1 µM was found to be 87%.

In another test the target is T2, human H1 receptor (Homo sapiens, UniProt P35367).
T2 construct: purchased Euroscreen SA, Brussels, Belgium ES-390-M; host or cells: recombinant CHO-K1 cells (membranes)
T2 sequence (P35367 whole entry): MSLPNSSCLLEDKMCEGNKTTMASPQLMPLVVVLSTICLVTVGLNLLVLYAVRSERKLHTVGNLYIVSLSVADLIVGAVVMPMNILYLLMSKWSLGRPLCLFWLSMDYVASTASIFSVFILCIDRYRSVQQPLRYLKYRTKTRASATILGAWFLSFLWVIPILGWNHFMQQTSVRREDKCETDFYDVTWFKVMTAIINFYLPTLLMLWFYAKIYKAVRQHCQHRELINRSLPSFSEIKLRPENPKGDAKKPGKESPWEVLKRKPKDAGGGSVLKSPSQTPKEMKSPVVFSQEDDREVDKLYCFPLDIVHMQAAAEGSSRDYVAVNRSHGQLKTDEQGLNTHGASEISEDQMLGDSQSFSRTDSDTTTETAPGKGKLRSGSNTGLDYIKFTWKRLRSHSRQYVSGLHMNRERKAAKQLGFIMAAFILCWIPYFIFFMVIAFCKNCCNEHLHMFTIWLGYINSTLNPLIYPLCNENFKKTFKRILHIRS
Description: Histamine H1 receptor binding, displacement of [3H]-pyrilamine. To be noted: 1 nM [3H]-pyrilamine; membranes of recombinant CHO-K1 cells expressing human H1 receptor; read-out: H1 pKi/[1328_S] (converted).
`Cc1c(Cl)ccc(OC2CCN(CC3CCN(C(C(=O)O)c4ccccc4)CC3)CC2)c1Cl` (stereo not drawn) [Example 2, 4-[[4-(2,4-Dichloro-3-methylphenoxy)-1-piperidinyl]methyl]-α-phenyl-1-piperidineacetic acid]: the Ki was 0.0316 µM.

Turning to `O=C(O)C(c1ccc(F)cc1)N1CCC(CN2CCC(Oc3ccc(Cl)c(Cl)c3)CC2)CC1` (stereo not drawn) [Example 3, 4-[[4-(3,4-Dichlorophenoxy)-1-piperidinyl]methyl]-α-(4-fluorophenyl)-1-piperidineacetic acid], the Ki was 0.0398 µM.

For the compound `COc1ccccc1C(C(=O)O)N1CCC(CN2CCC(Oc3ccc(Cl)c(Cl)c3)CC2)CC1` (stereo not drawn) [Example 4, 4-[[4-(3,4-Dichlorophenoxy)-1-piperidinyl]methyl]-α-(2-methoxyphenyl)-1-piperidineacetic acid], the Ki is 0.1 µM.

As to `Cc1ccccc1C(C(=O)O)N1CCC(CN2CCC(Oc3ccc(Cl)c(Cl)c3)CC2)CC1` (stereo not drawn) [Example 5, 4-[[4-(3,4-Dichlorophenoxy)-1-piperidinyl]methyl]-α-(2-methylphenyl)-1-piperidineacetic acid], the Ki was 0.0794 µM.

As for `Cc1ccc(C(C(=O)O)N2CCC(CN3CCC(Oc4ccc(Cl)c(Cl)c4)CC3)CC2)cc1` (stereo not drawn) [Example 6, 4-[[4-(3,4-Dichlorophenoxy)-1-piperidinyl]methyl]-α-(4-methylphenyl)-1-piperidineacetic acid], the Ki was 0.02 µM.

For `COc1ccccc1C(C(=O)O)N1CCC(CN2CCC(Oc3ccc(Cl)c(C)c3Cl)CC2)CC1` (stereo not drawn) [Example 7, 4-[[4-(2,4-Dichloro-3-methylphenoxy)-1-piperidinyl]methyl]-α-(2-methoxyphenyl)-1-piperidineacetic acid], the Ki is 0.0794 µM.

As for `Cc1ccccc1C(C(=O)O)N1CCC(CN2CCC(Oc3ccc(Cl)c(C)c3Cl)CC2)CC1` (stereo not drawn) [Example 8, 4-[[4-(2,4-Dichloro-3-methylphenoxy)-1-piperidinyl]methyl]-α-(2-methylphenyl)-1-piperidineacetic acid], the Ki is 0.0501 µM.

As to `Cc1ccc(C(C(=O)O)N2CCC(CN3CCC(Oc4ccc(Cl)c(C)c4Cl)CC3)CC2)cc1` (stereo not drawn) [Example 9, 4-[[4-(2,4-Dichloro-3-methylphenoxy)-1-piperidinyl]methyl]-α-(4-methylphenyl)-1-piperidineacetic acid], the Ki is 0.0316 µM.

In the case of `COc1ccccc1C(C(=O)O)N1CCC(CN2CCC(Oc3ccc(Cl)cc3C)CC2)CC1` (stereo not drawn) [Example 10, 4-[[4-(4-Chloro-2-methylphenoxy)-1-piperidinyl]methyl]-α-(2-methoxyphenyl)-1-piperidineacetic acid], the Ki is 0.251 µM.

Regarding `Cc1cc(Cl)ccc1OC1CCN(CC2CCN(C(C(=O)O)c3ccccc3C)CC2)CC1` (stereo not drawn) [Example 11, 4-[[4-(4-Chloro-2-methylphenoxy)-1-piperidinyl]methyl]-α-(2-methylphenyl)-1-piperidineacetic acid], the Ki was 0.158 µM.

In the case of `COc1ncc(C(C(=O)O)N2CCC(CN3CCC(Oc4ccc(Cl)c(Cl)c4)CC3)CC2)c(OC)n1` (stereo not drawn) [Example 12, α-[4-[[4-(3,4-Dichlorophenoxy)-1-piperidinyl]methyl]-1-piperidinyl]-2,4-dimethoxy-5-pyrimidineacetic acid], the Ki was 0.2 µM.

With `Cc1ccc(C(C(=O)O)N2CCC(CN3CCC(Oc4ccc(Cl)cc4C)CC3)CC2)cc1` (stereo not drawn) [Example 13, 4-[[4-(4-Chloro-2-methylphenoxy)-1-piperidinyl]methyl]-α-(4-methylphenyl)-1-piperidineacetic acid], the Ki was 0.0251 µM.

For `CC(=O)Nc1cccc(C(C(=O)O)N2CCC(CN3CCC(Oc4ccc(Cl)c(Cl)c4)CC3)CC2)c1` (stereo not drawn) [Example 14, α-[3-(Acetylamino)phenyl]-4-[[4-(3,4-dichlorophenoxy)-1-piperidinyl]methyl]-1-piperidineacetic acid], the Ki was 0.0251 µM.

Consider `Cc1c(Cl)ccc(OC2CCN(CC3CCN(C(C(=O)O)c4ccc(F)cc4)CC3)CC2)c1Cl` (stereo not drawn) [Example 15, 4-[[4-(2,4-Dichloro-3-methylphenoxy)-1-piperidinyl]methyl]-α-(4-fluorophenyl)-1-piperidineacetic acid], for which the Ki is 0.0251 µM.

Regarding `O=C(O)C(c1ccccc1)N1CCC(O)(CN2CCC(Oc3ccc(Cl)c(Cl)c3)CC2)CC1` (stereo not drawn) [Example 17, 4-[[4-(3,4-Dichlorophenoxy)-1-piperidinyl]methyl]-4-hydroxy-α-phenyl-1-piperidineacetic acid], the Ki was 0.01 µM.

In the case of `Cc1ccc(C(C(=O)O)N2CCC(O)(CN3CCC(Oc4ccc(Cl)c(Cl)c4)CC3)CC2)cc1` (stereo not drawn) [Example 18, 4-[[4-(3,4-Dichlorophenoxy)-1-piperidinyl]methyl]-4-hydroxy-α-(4-methylphenyl)-1-piperidineacetic acid], the Ki is 0.0158 µM.

As for `COc1ccccc1C(C(=O)O)N1CCC(O)(CN2CCC(Oc3ccc(Cl)c(Cl)c3)CC2)CC1` (stereo not drawn) [Example 19, 4-[[4-(3,4-Dichlorophenoxy)-1-piperidinyl]methyl]-4-hydroxy-α-(2-methoxyphenyl)-1-piperidineacetic acid], the Ki was 0.00794 µM.

For the compound `COC(=O)c1ccccc1CN1CCC(CN2CCC(Oc3ccc(Cl)c(Cl)c3)CC2)CC1` [Example 42, methyl 2-[(4-{[4-(3,4-dichlorophenoxy)piperidin-1-yl]methyl}piperidin-1-yl)methyl]benzoate], the Ki was 0.01 µM.

For `COC(=O)CN1CCC(CN2CCC(Oc3ccc(Cl)cc3C)CC2)CC1` [Example 69, Methyl-4-[[4-(4-chloro-2-methylphenoxy)-1-piperidinyl]methyl]-1-piperidineacetate], the Ki was 0.126 µM.

As to `O=C(O)CN1CCC(CN2CCC(Oc3ccc(Cl)c(Cl)c3)CC2)CC1` [Example 77, 4-[[4-(3,4-dichlorophenoxy)-1-piperidinyl]methyl]-1-piperidineacetic acid], the Ki was 0.126 µM.

With `Cc1c(Cl)ccc(OC2CCN(CC3CCN(CC(=O)O)CC3)CC2)c1Cl` [Example 78, 4-[[4-(2,4-Dichloro-3-methylphenoxy)-1-piperidinyl]methyl]-1-piperidineacetic acid], the Ki was 0.2 µM.

Consider `O=C(O)CN1CCC(O)(CN2CCC(Oc3ccc(Cl)c(Cl)c3)CC2)CC1` [Example 82, 4-[[4-(3,4-Dichlorophenoxy)-1-piperidinyl]methyl]-4-hydroxy-1-piperidineacetic acid], for which the Ki was 0.1 µM.

For the compound `C[C@@H](C(=O)O)N1CCC(CN2CCC(Oc3ccc(Cl)c(Cl)c3)CC2)CC1` [Example 84, (2S)-2-(4-{[4-(3,4-Dichlorophenoxy)piperidin-1-yl]methyl}piperidin-1-yl)propanoic acid], the Ki is 0.2 µM.

For `Clc1ccc(OC2CCN(CC3CCN(Cc4nn[nH]n4)CC3)CC2)cc1Cl` [Example 100, 4-(3,4-dichlorophenoxy)-1-[[1-(2H-tetrazol-5-ylmethyl)-4-piperidinyl]methyl]-piperidine], the Ki is 0.0398 µM.

In the case of `O=S(=O)(NCCCN1CCC(CN2CCC(Oc3ccc(Cl)c(Cl)c3)CC2)CC1)C(F)(F)F` [Example 103, N-[3-[4-[[4-(3,4-Dichlorophenoxy)-1-piperidinyl]methyl]-1-piperidinyl]propyl]-1,1,1-trifluoro-methanesulfonamide], the Ki was 0.02 µM.
